Test results: patent publication US5886172A, “Carbapenem-3-carboxylic acid ester derivatives” (Lederle (Japan) Ltd., priority 1995, dated 1999)
≈ marks a conversion by molar mass, not a printed value.

Assays:
[1] = tested on: B. subtilis ATCC 6633; experiment: Antibacterial activity, agar plate dilution method (MIC); type: cell-based; conditions: Bacillus subtilis, ATCC6633, 37° C., 18 hours
Experimental: (§1) Antibacterial activity was tested by using an agar plate dilution method in accordance with the standard method of the Japanese Chemotherapy Society [Chemotherapy, vol. 29, 76-79 (1981)].
(§2) Mueller-Hinton (MH) agar liquid media of the test microorganisms were cultured overnight at 37° C. and the resultant culture media were diluted with a buffered saline gelatin (BSG) solution to contain approximately 10^5 cells of the test microorganisms per milliliter. Then, about 5 microliters each of the diluted solutions were inoculated on MH agar media containing the test compound by using a microplanter.
(§3) The test microorganism strains used in this test were all standard ones. The test compound used herein was Compound (22) obtained in Preparation 6, i.e., the compound of formula (II), which is the active metabolite of the compounds of formula (I).

[2] = tested on: K. pneumoniae PCI-602; experiment: as above; type: cell-based; conditions: Klebsiella pneumoniae, PCI602, 37° C., 18 hours
Experimental: as §1, §2, §3

[3] = tested on: M. luteus ATCC 9341; experiment: as above; type: cell-based; conditions: Micrococcus luteus, ATCC9341, 37° C., 18 hours
Experimental: as §1, §2, §3

[4] = tested on: S. schottmuelleri 8006; experiment: as above; type: cell-based; conditions: 37° C., 18 hours
Experimental: as §1, §2, §3

[5] = tested on: S. aureus MS353; experiment: as above; type: cell-based; conditions: Staphylococcus aureus, 37° C., 18 hours
Experimental: as §1, §2, §3

[6] = tested on: M. morganii IFO 3848; experiment: as above; type: cell-based; conditions: Morganella morganii, IFO3848, 37° C., 18 hours
Experimental: as §1, §2, §3

[7] = tested on: E. coli K-12 C600; experiment: as above; type: cell-based; conditions: Escherichia coli, K12C600, 37° C., 18 hours
Experimental: as §1, §2, §3

[8] = tested on: S. typhimurium 11D971; experiment: as above; type: cell-based; conditions: Salmonella enterica, 37° C., 18 hours
Experimental: as §1, §2, §3

[9] = tested on: E. coli NIHJ JC-2; experiment: as above; type: cell-based; conditions: Escherichia coli, NIHJJC2, 37° C., 18 hours
Experimental: as §1, §2, §3

[10] = tested on: P. vulgaris OX-19; experiment: as above; type: cell-based; conditions: Proteus vulgaris, OX19, 37° C., 18 hours
Experimental: as §1, §2, §3

[11] = tested on: E. cloacae 963; experiment: as above; type: cell-based; conditions: Enterobacter cloacae, 37° C., 18 hours
Experimental: as §1, §2, §3

[12] = tested on: S. aureus Terajima; experiment: as above; type: cell-based; conditions: Staphylococcus aureus, 37° C., 18 hours
Experimental: as §1, §2, §3

[13] = tested on: P. mirabilis IFO 3849; experiment: as above; type: cell-based; conditions: Proteus mirabilis, IFO3849, 37° C., 18 hours
Experimental: as §1, §2, §3

[14] = tested on: E. aerogenes ATCC 13048; experiment: as above; type: cell-based; conditions: Klebsiella aerogenes, ATCC13048, 37° C., 18 hours
Experimental: as §1, §2, §3

[15] = tested on: S. aureus FDA209P JC-1; experiment: as above; type: cell-based; conditions: Staphylococcus aureus, 37° C., 18 hours
Experimental: as §1, §2, §3

[16] = tested on: P. vulgaris HX-19; experiment: as above; type: cell-based; conditions: Proteus vulgaris, HX19, 37° C., 18 hours
Experimental: as §1, §2, §3

[17] = tested on: S. typhi 901; experiment: as above; type: cell-based; conditions: Salmonella enterica, 18 h
Experimental: as §1, §2, §3

[18] = tested on: P. rettgeri IFO 3850; experiment: as above; type: cell-based; conditions: Providencia rettgeri, IFO3850, 37° C., 18 hours
Experimental: as §1, §2, §3

[19] = tested on: S. enteritidis G14; experiment: as above; type: cell-based; conditions: Salmonella enterica, 37° C., 18 hours
Experimental: as §1, §2, §3

[20] = tested on: S. paratyphi 1015; experiment: as above; type: cell-based; conditions: Salmonella enterica, 18 h
Experimental: as §1, §2, §3

[21] = tested on: S. pyogenes Cook; experiment: as above; type: cell-based; conditions: Streptococcus pyogenes, 37° C., 18 hours
Experimental: as §1, §2, §3

[22] = tested on: S. marcescens IAM 1184; experiment: as above; type: cell-based; conditions: Serratia marcescens, IAM1184, 37° C., 18 hours
Experimental: as §1, §2, §3

[23] = Stability Test (storage stability, residual activity by HPLC); type: physicochemical; conditions: for Residual activity, initial day: assumed to be 100%; for Residual activity, 1 month: 43800 min; for Residual activity, 3 months: 131400 min; for Retention of potency on storage: conclusion from Table 2; for Residual activity, 1 month / remaining at 730 h: 1 month
Experimental: Storage stability of (1-methylcyclohexane-carboxy)methyl (1R,5S,6S)-2-[(1-(1,3-thiazolin-2-yl)azetidin-3-yl)thio]-6-[(R)-1-hydroxyethyl]-1-methyl-carbapen-2-em-3-carboxylate [Compound (24)] was tested in comparison with its amorphous form and (cyclohexanecarboxy)methyl (1R,5S,6S)-2-[(1-(1,3-thiazolin-2-yl)azetidin-3-yl)thio]-6-[(R)-1-hydroxyethyl]-1-methyl-carbapen-2-em-3-carboxylate [Compound (C)], which is disclosed in European Patent Publication 632,039 A1.
Each compound in an amount of 20 mg was put in a glass bottle, and left to stand for 3 months in a constant-temperature chamber at 40° C. and at 40° C. /75% of humidity. The activity of each compound was assayed by HPLC after 1 month and 3 months, respectively. Assuming the activity at the beginning (initial day) to be 100%, the decrease in the activity is shown by percent residual activity in Table 2.

[24] = 40° C., HPLC, initial day = 100%
[25] = 40° C., 3 months, HPLC, initial day = 100%
[26] = solid storage, 40° C./75% humidity, HPLC, initial day = 100%

SMILES: C[C@@H](O)[C@H]1C(=O)N2C(C(=O)O)=C(SC3CN(C4=NCCS4)C3)[C@H](C)[C@H]12 [Compound (22), (1R,5S,6S)-2-[(1-(thiazolin-2-yl)azetidin-3-yl)thio]-6-[(R)-1-hydroxyethyl]-1-methyl-carbapen-2-em-3-carboxylic acid]
- MIC [1]: 0.025 µg/mL (≈ 0.0652 µM)
- MIC [2]: 0.013 µg/mL (≈ 0.0339 µM)
- MIC [3]: 0.2 µg/mL (≈ 0.522 µM)
- MIC [4]: 0.025 µg/mL (≈ 0.0652 µM)
- MIC [5]: ≤ 6 ng/mL
- MIC [6]: 0.39 µg/mL (≈ 1.02 µM)
- MIC [7]: 0.1 µg/mL (≈ 0.261 µM)
- MIC [8]: 0.025 µg/mL (≈ 0.0652 µM)
- MIC [9]: 0.013 µg/mL (≈ 0.0339 µM)
- MIC [10]: 0.1 µg/mL (≈ 0.261 µM)
- MIC [11]: 0.05 µg/mL (≈ 0.13 µM)
- MIC [12]: ≤ 6 ng/mL
- MIC [13]: 0.39 µg/mL (≈ 1.02 µM)
- MIC [14]: 0.1 µg/mL (≈ 0.261 µM)
- MIC [15]: 0.013 µg/mL (≈ 0.0339 µM)
- MIC [16]: 0.1 µg/mL (≈ 0.261 µM)
- MIC [17]: ≤ 6 ng/mL
- MIC [18]: 0.39 µg/mL (≈ 1.02 µM)
- MIC [19]: 0.39 µg/mL (≈ 1.02 µM)
- MIC [20]: 0.05 µg/mL (≈ 0.13 µM)
- MIC [21]: ≤ 6 ng/mL
- MIC [22]: 0.05 µg/mL (≈ 0.13 µM)

SMILES: C[C@@H](O)[C@H]1C(=O)N2C(C(=O)OCOC(=O)C3(C)CCCCC3)=C(SC3CN(C4=NCCS4)C3)[C@H](C)[C@H]12 [Compound (24) (Amorphous), (1-methylcyclohexane-carboxy)methyl (1R,5S,6S)-2-[(1-(1,3-thiazolin-2-yl)azetidin-3-yl)thio]-6-[(R)-1-hydroxyethyl]-1-methyl-carbapen-2-em-3-carboxylate]
- Residual activity, initial day ([23]; 40° C./75% humidity): 100%
- Residual activity, 1 month [23, 24]: 67.5%
- Residual activity, 3 months [23, 25]: 36.8%
- Residual activity, initial day ([23]; 40° C.): 100%
- Retention of potency on storage ([23]; listed as amorphous form): rapidly loses its potency

SMILES: C[C@@H](O)[C@H]1C(=O)N2C(C(=O)OCOC(=O)C3(C)CCCCC3)=C(SC3CN(C4=NCCS4)C3)[C@H](C)[C@H]12 [Compound (24) (Crystalline), (1-methylcyclohexane-carboxy)methyl (1R,5S,6S)-2-[(1-(1,3-thiazolin-2-yl)azetidin-3-yl)thio]-6-[(R)-1-hydroxyethyl]-1-methyl-carbapen-2-em-3-carboxylate]
- Residual activity, initial day ([23]; 40° C./75% humidity): 100%
- Residual activity, 1 month [23, 24]: 99.4%
- Residual activity, 3 months [23, 25]: 99.2%
- Residual activity, initial day ([23]; 40° C.): 100%
- Retention of potency on storage ([23]; listed as crystalline form of Compound (24)): retains its potency over a long period of time
- remaining at 730 h [23, 26]: 98.9%

SMILES: C[C@@H](O)[C@H]1C(=O)N2C(C(=O)OCOC(=O)C3CCCCC3)=C(SC3CN(C4=NCCS4)C3)[C@H](C)[C@H]12 [Compound (C) (Crystalline), (cyclohexanecarboxy)methyl (1R,5S,6S)-2-[(1-(1,3-thiazolin-2-yl)azetidin-3-yl)thio]-6-[(R)-1-hydroxyethyl]-1-methyl-carbapen-2-em-3-carboxylate, reference compound]
- Residual activity, initial day ([23]; 40° C./75% humidity): 100%
- Residual activity, initial day ([23]; 40° C.): 100%
- remaining at 730 h [23, 26]: 73.7%
- remaining at 730 h ([23]; solid storage, 40° C., HPLC, initial day = 100%): 98.9%
- remaining at 2190 h ([23]; solid storage, 40° C., 3 months, HPLC, initial day = 100%): 94.2%
